PubChem BioAssay AID330 (DTP/NCI, 2004)
“And” between values parts separate entries of the source, which are not always exact repeats. Equal entries are not always repeated. Toxic doses and inconclusive results are not listed.

Tested on: P388 leukemia ip, CD2F1 mice, survival T/C
Test: NCI In Vivo Anticancer Drug Screen. Data for tumor model P388 Leukemia (intraperitoneal) in CD2F1 (CDF1) mice
Conditions: endpoint: median survival time, higher = longer survival
In short: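 Mice carrying the transplanted tumor received test compound or vehicle. Survival was recorded in each group, and the value is the treated-group measurement divided by that of the vehicle-treated control group.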

[1] = dose: 50.0 mg/kg/injection, schedule: Q01DX005 (ip), vehicle: saline with Tween-80
[2] = dose: 100.0 mg/kg/injection, schedule: Q01DX005 (ip), vehicle: saline with Tween-80
[3] = dose: 200.0 mg/kg/injection, schedule: Q01DX005 (ip), vehicle: saline with Tween-80

CC(C)CCCCCCCCCCCCC(=O)NCC(=O)NC1C(C)OC(Nc2ncnc3c2ncn3C)C(O)C1O (stereo unspecified)
T/C (dose: 1.56 mg/kg/injection, schedule: Q01DX009 (ip), vehicle: distilled water + Tween-80): 98 % of control | T/C (dose: 3.13 mg/kg/injection, schedule: Q01DX009 (ip), vehicle: distilled water + Tween-80): 95 % of control | T/C (dose: 6.25 mg/kg/injection, schedule: Q01DX009 (ip), vehicle: distilled water + Tween-80): 101 % of control | T/C (dose: 12.5 mg/kg/injection, schedule: Q01DX009 (ip), vehicle: distilled water + Tween-80): 98 % of control | T/C (dose: 25.0 mg/kg/injection, schedule: Q01DX009 (ip), vehicle: distilled water + Tween-80): 90 % of control | T/C (dose: 50.0 mg/kg/injection, schedule: Q01DX009 (ip), vehicle: distilled water + Tween-80): 91 % of control

Oc1cccc(NCNC2Nc3ccccc3N2)c1
T/C (dose: 15.0 mg/kg/injection, schedule: Q01DX005 (ip), vehicle: saline with Tween-80): 94 % of control | T/C (dose: 30.0 mg/kg/injection, schedule: Q01DX005 (ip), vehicle: saline with Tween-80): 95 % of control

COc1cc2c(cc1C(C)c1cc(C(C)(C)C)c(O)c(C(C)(C)C)c1)OCO2 (stereo unspecified)
T/C [1]: 104 % of control | T/C [2]: 100 % of control | T/C [3]: 94 % of control

CCN(CC)CCNc1ccc(CO)c2sc3ccccc3c(=O)c12
T/C (dose: 5.0 mg/kg/injection, schedule: Q01DX005 (ip), vehicle: water): 110 % of control | T/C (dose: 5.0 mg/kg/injection, schedule: Q01DX009 (ip), vehicle: water): 113 % of control | T/C (dose: 6.25 mg/kg/injection, schedule: Q01DX005 (ip), vehicle: saline): 104 % of control | T/C (dose: 6.25 mg/kg/injection, schedule: Q01DX005 (iv), vehicle: saline): 100 % of control | T/C (dose: 10.0 mg/kg/injection, schedule: Q01DX005 (ip), vehicle: water): 106 % of control | T/C (dose: 10.0 mg/kg/injection, schedule: Q01DX009 (ip), vehicle: water): 116 % of control | T/C (dose: 10.36 mg/kg/injection, schedule: Q01DX005 (ip), vehicle: water): 118 % of control | T/C (dose: 12.5 mg/kg/injection, schedule: Q01DX005 (ip), vehicle: saline): 101 % of control | T/C (dose: 12.5 mg/kg/injection, schedule: Q01DX005 (iv), vehicle: saline): 104 % of control | T/C (dose: 12.5 mg/kg/injection, schedule: Q01DX009 (ip), vehicle: water): 109 % of control | T/C (dose: 17.28 mg/kg/injection, schedule: Q01DX005 (ip), vehicle: water): 109 % of control | T/C (dose: 20.0 mg/kg/injection, schedule: Q01DX005 (ip), vehicle: water): 104 % of control | T/C (dose: 20.0 mg/kg/injection, schedule: Q01DX009 (ip), vehicle: water): 118 % of control | T/C (dose: 25.0 mg/kg/injection, schedule: Q01DX005 (ip), vehicle: saline): 109 % of control | T/C (dose: 25.0 mg/kg/injection, schedule: Q01DX005 (iv), vehicle: saline): 108 % of control | T/C (dose: 25.0 mg/kg/injection, schedule: Q01DX009 (ip), vehicle: water): 122 % of control | T/C (dose: 28.8 mg/kg/injection, schedule: Q01DX005 (ip), vehicle: water): 109 % of control | T/C (dose: 50.0 mg/kg/injection, schedule: Q01DX005 (iv), vehicle: saline): 117 % of control | T/C (dose: 50.0 mg/kg/injection, schedule: Q01DX009 (ip), vehicle: water): 156 % of control | T/C (dose: 80.0 mg/kg/injection, schedule: Q01DX005 (ip), vehicle: water): 151 % of control and 182 % of control | T/C (dose: 100.0 mg/kg/injection, schedule: Q01DX009 (ip), vehicle: water): 100 % of control | T/C (dose: 100.0 mg/kg/injection, schedule: Q04DX003 (ip), vehicle: saline with Tween-80): 118 % of control | T/C (dose: 200.0 mg/kg/injection, schedule: Q04DX003 (ip), vehicle: saline sonified): 150 % of control | T/C (dose: 400.0 mg/kg/injection, schedule: Q04DX003 (ip), vehicle: saline with Tween-80): 90 % of control

O=C(NC(Cc1ccc(Cl)cc1)C(=O)O)c1cccc(Br)c1 (stereo unspecified)
T/C (dose: 50.0 mg/kg/injection, schedule: Q01DX005 (ip), vehicle: Klucel (hydroxypropylcellulose) (HPC)): 102 % of control | T/C (dose: 100.0 mg/kg/injection, schedule: Q01DX005 (ip), vehicle: Klucel (hydroxypropylcellulose) (HPC)): 100 % of control | T/C (dose: 200.0 mg/kg/injection, schedule: Q01DX005 (ip), vehicle: Klucel (hydroxypropylcellulose) (HPC)): 110 % of control

[N-]=[N+]=NCCOCn1ccc(=O)[nH]c1=O
T/C (dose: 60.0 mg/kg/injection, schedule: Q01DX005 (ip), vehicle: saline): 103 % of control | T/C (dose: 120.0 mg/kg/injection, schedule: Q01DX005 (ip), vehicle: saline): 108 % of control | T/C (dose: 240.0 mg/kg/injection, schedule: Q01DX005 (ip), vehicle: saline): 100 % of control

COc1cc2c(cc1C(C)c1ccc(Cl)cc1)OCO2 (stereo unspecified)
T/C [1]: 99 % of control | T/C [2]: 108 % of control | T/C [3]: 101 % of control

C=C(C)C12CC(COC(=O)c3ccccc3)C34OC5(OC1C3C1OC1(CO)C(O)C1(O)C(OC(=O)c3ccccc3)C(C)C(C(C)CCCCCCC5O)C14)O2 (stereo unspecified)
T/C (dose: 0.8 micrograms/kg/injection, schedule: Q01DX009 (ip), vehicle: Klucel (hydroxypropylcellulose) (HPC)): 104 % of control | T/C (dose: 1.5 micrograms/kg/injection, schedule: Q01DX009 (ip), vehicle: saline): 99 % of control | T/C (dose: 1.6 micrograms/kg/injection, schedule: Q01DX009 (ip), vehicle: Klucel (hydroxypropylcellulose) (HPC)): 110 % of control | T/C (dose: 3.1 micrograms/kg/injection, schedule: Q01DX009 (ip), vehicle: saline): 99 % of control | T/C (dose: 3.2 micrograms/kg/injection, schedule: Q01DX009 (ip), vehicle: Klucel (hydroxypropylcellulose) (HPC)): 102 % of control | T/C (dose: 6.2 micrograms/kg/injection, schedule: Q01DX009 (ip), vehicle: saline): 96 % of control | T/C (dose: 6.3 micrograms/kg/injection, schedule: Q01DX009 (ip), vehicle: Klucel (hydroxypropylcellulose) (HPC)): 98 % of control | T/C (dose: 12.5 micrograms/kg/injection, schedule: Q01DX009 (ip), vehicle: Klucel (hydroxypropylcellulose) (HPC)): 112 % of control | T/C (dose: 12.5 micrograms/kg/injection, schedule: Q01DX009 (ip), vehicle: saline with Tween-80): 89 % of control | T/C (dose: 12.5 micrograms/kg/injection, schedule: Q01DX009 (ip), vehicle: saline): 124 % of control | T/C (dose: 25.0 micrograms/kg/injection, schedule: Q01DX009 (ip), vehicle: Klucel (hydroxypropylcellulose) (HPC)): 102 % of control | T/C (dose: 25.0 micrograms/kg/injection, schedule: Q01DX009 (ip), vehicle: saline with Tween-80): 96 % of control | T/C (dose: 25.0 micrograms/kg/injection, schedule: Q01DX009 (ip), vehicle: saline): 150 % of control | T/C (dose: 50.0 micrograms/kg/injection, schedule: Q01DX009 (ip), vehicle: Klucel (hydroxypropylcellulose) (HPC)): 101 % of control | T/C (dose: 50.0 micrograms/kg/injection, schedule: Q01DX009 (ip), vehicle: saline): 157 % of control and 159 % of control | T/C (dose: 100.0 micrograms/kg/injection, schedule: Q01DX009 (ip), vehicle: Klucel (hydroxypropylcellulose) (HPC)): 104 % of control | T/C (dose: 200.0 micrograms/kg/injection, schedule: Q01DX009 (ip), vehicle: Klucel (hydroxypropylcellulose) (HPC)): 110 % of control

Cc1nc(C)c(C(=O)O)cc1C(=O)O
T/C (dose: 100.0 mg/kg/injection, schedule: Q04DX003 (ip), vehicle: saline): 100 % of control | T/C (dose: 200.0 mg/kg/injection, schedule: Q04DX003 (ip), vehicle: saline): 95 % of control | T/C (dose: 400.0 mg/kg/injection, schedule: Q04DX003 (ip), vehicle: saline): 86 % of control

COC(=O)c1c(C(=O)OC)c2ccc3ccccc3n2c1-c1ccccc1
T/C (dose: 12.5 mg/kg/injection, schedule: Q01DX001 (ip), vehicle: saline with Tween-80): 115 % of control | T/C (dose: 25.0 mg/kg/injection, schedule: Q01DX001 (ip), vehicle: saline with Tween-80): 94 % of control | T/C (dose: 50.0 mg/kg/injection, schedule: Q01DX001 (ip), vehicle: saline with Tween-80): 94 % of control | T/C (dose: 200.0 mg/kg/injection, schedule: Q01DX001 (ip), vehicle: saline with Tween-80): 93 % of control | T/C (dose: 400.0 mg/kg/injection, schedule: Q01DX001 (ip), vehicle: saline with Tween-80): 100 % of control

COC1(OC)/C(=N/NS(=O)(=O)c2ccc(C)cc2)C2CC1C1CC21 (stereo unspecified)
T/C (dose: 25.0 mg/kg/injection, schedule: Q01DX009 (ip), vehicle: saline with Tween-80): 98 % of control | T/C (dose: 50.0 mg/kg/injection, schedule: Q01DX009 (ip), vehicle: saline with Tween-80): 96 % of control | T/C (dose: 100.0 mg/kg/injection, schedule: Q01DX009 (ip), vehicle: saline with Tween-80): 96 % of control

CCOC(=O)N1c2ccccc2OC1C#N (stereo unspecified)
T/C [1]: 99 % of control | T/C [2]: 107 % of control | T/C [3]: 113 % of control

CC1C=CCC(C)(C#N)C1 (stereo unspecified)
T/C (dose: 50.0 mg/kg/injection, schedule: Q01DX009 (ip), vehicle: Klucel (hydroxypropylcellulose) (HPC)): 103 % of control | T/C (dose: 100.0 mg/kg/injection, schedule: Q01DX009 (ip), vehicle: Klucel (hydroxypropylcellulose) (HPC)): 100 % of control | T/C (dose: 200.0 mg/kg/injection, schedule: Q01DX009 (ip), vehicle: Klucel (hydroxypropylcellulose) (HPC)): 108 % of control

CC(N1CCS(=O)(=O)CC1)P(=O)(O)O (stereo unspecified)
T/C [1]: 90 % of control | T/C [2]: 99 % of control | T/C [3]: 100 % of control
